Where a name gives a salt, the structure may show the parent alone. Read-outs that look alike come from different tables or passages of the source.
What was measured:
[1] = Absorption and fluorescence spectroscopy of dyes; format: physicochemical
Method: Phosphate buffered saline (PBS) was at pH 7.4 unless otherwise noted.
Spectroscopy was performed using 1-cm path length, 3.5-mL quartz cuvettes from Starna Cells or 1-cm path length, 1.0-mL quartz microcuvettes from Hellma. All measurements were taken at ambient temperature (22±2° C.) in 10 mM HEPES, pH 7.3 buffer unless otherwise noted. Absorption spectra were recorded on a Cary Model 100 spectrometer (Varian); reported values for extinction coefficients (ε) are averages (n=3). Fluorescence spectra were recorded on a Cary Eclipse fluorometer (Varian). Normalized spectra are shown for clarity.

[2] = Quantum yield measurement (Quantaurus-QY spectrometer); format: physicochemical; details: for increase in quantum yield / brightness relative to parent N,N-dialkyl dye: azetidine-substituted vs parent fluorophore
Method: All reported quantum yield values were measured in under identical conditions using a Quantaurus-QY spectrometer (C11374, Hamamatsu). Measurements were carried out using dilute samples (A<0.1) and self-absorption corrections were performed using the instrument software. Reported values are averages (n=3).

[3] = Fluorescence lifetime measurement; details: for τ: Table 2, 10 mM HEPES pH 7.3 per table footnote
Method: For fluorescence lifetime measurements, a pulse picker (Model 350-160, ConOptics) was placed in the laser beam to reduce the pulse frequency from 80 MHz to 20 MHz. Samples (2 μM dye diluted in 50 mM HEPES, pH 7.2, H2O, or CH3OH) were excited at 830 nm laser wavelength and 6 mW laser power. The emitted light was collected by the fast-timing APD and fed to the single-photon counting board (TimeHarp200; PicoQuant). Timing pulses were obtained from a PIN diode (DET01CFC; ThorLabs) monitoring the 20 MHz pulse train. The temporal impulse response of the system was determined by second harmonic generation of laser pulses using a thin nonlinear crystal in place of a dye sample. The lifetime decay data was fit to a single exponential decay function using a custom MATLAB program.

[4] = Table 1, trifluoroethanol containing 0.1% (v/v) trifluoroacetic acid

| SMILES | ε ([1]; Table 3, 10 mM HEPES pH 7.3) | λem ([1]; Table 3, 10 mM HEPES pH 7.3) | λmax ([1]; Table 3, 10 mM HEPES pH 7.3) | ϕ ([2]; Table 3, 10 mM HEPES pH 7.3) | ϕ (quantum yield) ([2]; aqueous buffer) | ε ([1]; Table 1, 10 mM HEPES pH 7.3) | λem ([1]; Table 1, 10 mM HEPES pH 7.3) | λmax ([1]; Table 1, 10 mM HEPES pH 7.3) | ϕ ([2]; Table 1, 10 mM HEPES pH 7.3) | ε (extinction coefficient) ([1]; aqueous buffer) | other results |
| --- | --- | --- | --- | --- | --- | --- | --- | --- | --- | --- | --- |
| c1cc2cc3ccc(N4CCC4)cc3nc2cc1N1CCC1 [Example 60, 3,6-Di(azetidin-1-yl)acridine] | 47,000 M^−1 cm^−1 | 531 nm | 492 nm | 0.52 | 0.52 | – | – | – | – | – | increase in quantum yield / brightness relative to parent N,N-dialkyl dye [2]: 2.5 fold |
| COC1CN(c2ccc3c(-c4ccccc4C(=O)[O-])c4ccc(=[N+]5CC(OC)C5)cc-4oc3c2)C1 (centres unmarked) [Example 11, 2-(3,6-Bis(3-methoxyazetidin-1-yl)xanthylium-9-yl)benzoate] | – | – | – | – | – | 109,000 M^−1 cm^−1 | 564 nm | 541 nm | 0.88 | – | – |
| c1cc2nc3ccc(=[N+]4CCC4)cc-3oc2cc1N1CCC1 [Example 61, 3,7-Di(azetidin-1-yl)phenoxazin-5-ium trifluoroacetate] | 99,000 M^−1 cm^−1 | 661 nm | 647 nm | 0.24 | 0.24 | – | – | – | – | 99000 M⁻¹ cm⁻¹ | increase in quantum yield / brightness relative to parent N,N-dialkyl dye [2]: 3.4 fold |
| CN(C)c1ccc2c(c1)Oc1cc(O)ccc1C21OC(=O)c2ccccc21 (centres unmarked) [dimethyl rhodol, reference compound] | 60,000 M^−1 cm^−1 | 546 nm | 518 nm | – | – | – | – | – | – | 60000 M⁻¹ cm⁻¹ | ϕ (quantum yield) [2]: 0.21; ϕ ([2]; pH 7.3): 0.21 |
| O=C([O-])c1ccccc1-c1c2ccc(=[N+]3CC(F)(F)C3)cc-2oc2cc(N3CC(F)(F)C3)ccc12 [Example 9, 2-(3,6-Bis(3,3-difluoroazetidin-1-yl)xanthylium-9-yl)benzoate] | – | – | – | – | – | 94,000 M^−1 cm^−1 | 549 nm | 525 nm | 0.91 | – | – |
| O=C(O)c1cc2ccc(N3CCC3)cc2oc1=O [Example 51, 7-(Azetidin-1-yl)-2-oxo-2H-chromene-3-carboxylic acid] | 24,000 M^−1 cm^−1 | 470 nm | 387 nm | 0.84 | 0.84 | – | – | – | – | 24000 M⁻¹ cm⁻¹ | increase in quantum yield / brightness relative to parent N,N-dialkyl dye [2]: ~30 fold |
| O=C([O-])c1ccccc1-c1c2ccc(=[N+]3CC(F)C3)cc-2oc2cc(N3CC(F)C3)ccc12 (centres unmarked) [Example 10, 2-(3,6-Bis(3-fluoroazetidin-1-yl)xanthylium-9-yl)benzoate] | – | – | – | – | – | 113,000 M^−1 cm^−1 | 560 nm | 536 nm | 0.87 | – | – |
| CCN(CC)c1ccc2nc3ccc(=[N+](CC)CC)cc-3oc2c1.[O-][Cl+3]([O-])([O-])[O-] [Oxazine 1, reference compound] | 111,000 M^−1 cm^−1 | 669 nm | 655 nm | 0.07 | 0.07 | – | – | – | – | 111000 M⁻¹ cm⁻¹ | – |
| CN(C)C1CN(c2ccc3c(-c4ccccc4C(=O)[O-])c4ccc(N5CC(N(C)C)C5)cc4[o+]c3c2)C1 [Example 13, 2-(3,6-Bis(3-(dimethylamino)azetidin-1-yl)xanthylium-9-yl)benzoate] | – | – | – | – | – | 111,000 M^−1 cm^−1 | 565 nm | 542 nm | 0.57 | – | – |
| Cl.N=c1ccc2c(-c3ccccc3C(=O)O)c3ccc(N)cc3oc-2c1 [rhodamine 110, reference compound] | – | – | – | – | 0.88 | – | – | – | – | 76000 M⁻¹ cm⁻¹ | ε ([1]; Table 2, 10 mM HEPES pH 7.3): 76,000 M^−1 cm^−1; λem ([1]; Table 2, 10 mM HEPES pH 7.3): 520 nm; λmax ([1]; Table 2, 10 mM HEPES pH 7.3): 497 nm; ϕ ([2]; Table 2, 10 mM HEPES pH 7.3): 0.88; τ (fluorescence lifetime) [3]: 3.3 ns; τ [3]: 3.26 ns |
| O=C([O-])c1ccccc1-c1c2ccc(=[N+]3CC(C(=O)O)C3)cc-2oc2cc(N3CC(C(=O)O)C3)ccc12 (centres unmarked) [Example 16, 2-(3,6-Bis(3-carboxyazetidin-1-yl)xanthylium-9-yl)benzoate] | – | – | – | – | – | 108,000 M^−1 cm^−1 | 568 nm | 545 nm | 0.87 | – | – |
| O=C(O)c1ccccc1-c1c2ccc(=O)cc-2oc2cc(N3CCC3)ccc12 [Example 59, 2-(6-(Azetidin-1-yl)-3-oxo-3H-xanthen-9-yl)benzoic acid] | 59,000 M^−1 cm^−1 | 546 nm | 519 nm | 0.85 | 0.85 | – | – | – | – | – | increase in quantum yield / brightness relative to parent N,N-dialkyl dye [2]: 4 fold |
| Cc1cc(=O)oc2cc(N(C)C)ccc12 [Coumarin 461, reference compound] | 18,000 M^−1 cm^−1 | 470 nm | 372 nm | – | – | – | – | – | – | 18000 M⁻¹ cm⁻¹ | ϕ (quantum yield) [2]: 0.19; ϕ ([2]; pH 7.3): 0.19 |
| O=C([O-])c1ccccc1-c1c2ccc(=[N+]3CCC3)cc-2oc2cc(N3CCC3)ccc12 [Example 7, 2-(3,6-Di(azetidin-1-yl)xanthylium-9-yl)benzoate] | – | – | – | – | 0.88 | 101,000 M^−1 cm^−1 | 571 nm | 549 nm | 0.88 | – | ε ([1]; Table 2, 10 mM HEPES pH 7.3): 101,000 M^−1 cm^−1; λem ([1]; Table 2, 10 mM HEPES pH 7.3): 571 nm; λmax ([1]; Table 2, 10 mM HEPES pH 7.3): 549 nm; higher extinction coefficient than the other dyes ([1]; rhodamines of Table 2): ~30%; ϕ ([2]; Table 2, 10 mM HEPES pH 7.3): 0.88; brighter than the pyrrolidine derivative ([2]; one-photon excitation): 60%; τ (fluorescence lifetime) [3]: 3.8 ns; τ [3]: 3.84 ns |
| CN(C)c1ccc2c(-c3ccccc3C(=O)[O-])c3ccc(N(C)C)cc3[o+]c2c1 [TMR, tetramethylrhodamine, reference compound] | – | – | – | – | 0.41 | – | – | – | – | 78000 M⁻¹ cm⁻¹ | ε ([1]; Table 2, 10 mM HEPES pH 7.3): 78,000 M^−1 cm^−1; λem ([1]; Table 2, 10 mM HEPES pH 7.3): 572 nm; λmax ([1]; Table 2, 10 mM HEPES pH 7.3): 548 nm; ϕ ([2]; pH 7.3): 0.41; τ (fluorescence lifetime) [3]: 2.2 ns; τ [3]: 2.21 ns |
| CN(C)c1ccc2cc3ccc(N(C)C)cc3nc2c1 [Acridine Orange, reference compound] | 50,000 M^−1 cm^−1 | 528 nm | 493 nm | 0.21 | 0.21 | – | – | – | – | – | – |
| N#CC1CN(c2ccc3c(-c4ccccc4C(=O)[O-])c4ccc(=[N+]5CC(C#N)C5)cc-4oc3c2)C1 (centres unmarked) [Example 12, 2-(3,6-Bis(3-cyanoazetidin-1-yl)xanthylium-9-yl)benzoate] | – | – | – | – | – | 108,000 M^−1 cm^−1 | 557 nm | 533 nm | 0.89 | – | – |
| Cc1cc(=O)oc2cc(N3CCC3)ccc12 [Example 49, 7-(Azetidin-1-yl)-4-methyl-2H-chromen-2-one] | 15,000 M^−1 cm^−1 | 467 nm | 354 nm | 0.96 | 0.96 | – | – | – | – | 15000 M⁻¹ cm⁻¹ | increase in quantum yield / brightness relative to parent N,N-dialkyl dye [2]: five-fold |
| C[Si]1(C)C2=CC(=[N+]3CCC3)C=CC2=C(c2ccccc2C(=O)[O-])c2ccc(N3CCC3)cc21 [Example 30, 2-(3,7-Di(azetidin-1-yl)-5,5-dimethyldibenzo[b,e]silin-10-ylium-10(5H)-yl)benzoate] | – | 664 nm | 646 nm | 0.54 | 0.54 | – | 664 nm | 646 nm | 0.54 | – | ε ([1]; Table 1, ethanol containing 0.1% (v/v) trifluoroacetic acid): 152,000^b M^−1 cm^−1; ε ([1]; Table 3, ethanol containing 0.1% v/v trifluoroacetic acid): 152,000^a M^−1 cm^−1; ε (extinction coefficient) ([1]; acidic ethanol): 152000 M⁻¹ cm⁻¹; λmax ([1]; text b257, unit not given): 646 |
| CC1(C)CN(c2ccc3c(-c4ccccc4C(=O)[O-])c4ccc(=[N+]5CC(C)(C)C5)cc-4oc3c2)C1 [Example 8, 2-(3,6-Bis(3,3-dimethylazetidin-1-yl)xanthylium-9-yl)benzoate] | – | – | – | – | – | 110,000 M^−1 cm^−1 | 572 nm | 550 nm | 0.83 | – | – |
| O=C(O)CC1CN(c2ccc3c(-c4ccccc4C(=O)[O-])c4ccc(=[N+]5CC(CC(=O)O)C5)cc-4oc3c2)C1 (centres unmarked) [Example 17, 2-(3,6-Bis(3-(carboxymethyl)azetidin-1-yl)xanthylium-9-yl)benzoate] | – | – | – | – | – | 111,000 M^−1 cm^−1 | 572 nm | 549 nm | 0.87 | – | – |
| CC1(C)C2=CC(=[N+]3CC(F)(F)C3)C=CC2=C(c2ccccc2C(=O)[O-])c2ccc(N3CC(F)(F)C3)cc21 [Example 41, 2-(3,6-Bis(3,3-difluoroazetidin-1-yl)-10,10-dimethylanthracen-9-ylium-9(10H)-yl)benzoate] | – | – | – | – | – | – | 609 nm | 585 nm | 0.78 | – | ε [1, 4]: 156,000^a M^−1 cm^−1 |
| C[Si]1(C)C2=CC(=[N+]3CC(F)C3)C=CC2=C(c2ccccc2C(=O)[O-])c2ccc(N3CC(F)C3)cc21 (centres unmarked) [Example 31, 2-(3,7-Bis(3-fluoroazetidin-1-yl)-5,5-dimethyldibenzo[b,e]silin-10-ylium-10(5H)-yl)benzoate] | – | – | – | – | – | – | 652 nm | 635 nm | 0.56 | – | ε [1, 4]: 167,000^a M^−1 cm^−1 |
| CC1(C)C2=CC(=[N+]3CCC3)C=CC2=C(c2ccccc2C(=O)[O-])c2ccc(N3CCC3)cc21 [Example 40, 2-(3,6-Di(azetidin-1-yl)-10,10-dimethylanthracen-9-ylium-9(10H)-yl)benzoate] | 99,000 M^−1 cm^−1 | 631 nm | 608 nm | 0.67 | 0.67 | 99,000 M^−1 cm^−1 | 631 nm | 608 nm | 0.67 | 99000 M⁻¹ cm⁻¹ | – |

Source: US10161932B2, “Azetidine-substituted fluorescent compounds” (HOWARD HUGHES MEDICAL INSTITUTE, priority 2014, dated 2018)
